Read-outs that look alike come from different tables or passages of the source.
Test system: panel of 290 distinct kinases (321 in the larger panel), excluding mutant variants
[1] = asterisk: panel of 321 distinct kinases
[2] = no asterisk: panel of 290 distinct kinases
[3] = kinase selectivity score, 290 distinct kinases, class symbols

SMILES | S35 [1] | S35 [2] | further results
COc1cc2ncnc(Oc3cccc(NC(=O)Nc4cc(C(C)(C)F)no4)c3)c2cc1OCCCS(C)(=O)=O [Ex 42, 1-(3-(2-fluoropropan-2-yl)isoxazol-5-yl)-3-(3-(7-methoxy-6-(3-(methylsulfonyl)propoxy)quinazolin-4-yloxy)phenyl)urea] | – | – | S35 (kinase selectivity score, value marked * (larger kinase panel), class symbols): C* (0.20 < C ≦ 0.40)
COCCOc1cc2ncnc(Oc3cccc(NC(=O)Nc4cc(C5CC5)no4)c3)c2cc1OC [Ex 214, 1-(3-cyclopropylisoxazol-5-yl)-3-(3-(6-methoxy-7-(2-methoxyethoxy)quinazolin-4-yloxy)phenyl)urea] | C* (0.20 < C ≦ 0.40) | – | –
COc1cc2ncnc(Oc3cccc(NC(=O)Nc4cc(C(C)(C)F)no4)c3)c2cc1O [Ex 258, 1-(3-(2-fluoropropan-2-yl)isoxazol-5-yl)-3-(3-(6-hydroxy-7-methoxyquinazolin-4-yloxy)phenyl)urea] | – | C (0.20 < C ≦ 0.40) | –
CCOc1cc2ncnc(Sc3cccc(NC(=O)Nc4cc(C(C)(C)C)on4)c3)c2cc1OC [Ex 50, 1-(5-tert-butylisoxazol-3-yl)-3-[3-(7-ethoxy-6-methoxyquinazolin-4-ylthio)phenyl]urea] | – | – | S35 [3]: B (0.10 < B ≦ 0.20)
COCCOc1cc2ncnc(Oc3cccc(NC(=O)Nc4cc(C(F)(F)F)n(C)n4)c3)c2cc1OC [Ex 208, 1-{3-[6-methoxy-7-(2-methoxyethoxy)quinazolin-4-yloxy]phenyl}-3-[1-methyl-5-(trifluoromethyl)-1H-pyrazol-3-yl]urea] | C* (0.20 < C ≦ 0.40) | – | –
CCOc1cc2c(Oc3cccc(NC(=O)Nc4cc(C(C)(CF)CF)on4)c3)ncnc2cc1OC [Ex 393, 1-(5-(1,3-difluoro-2-methylpropan-2-yl)isoxazol-3-yl)-3-(3-(6-ethoxy-7-methoxyquinazolin-4-yloxy)phenyl)urea] | – | C (0.20 < C ≦ 0.40) | –
CCOc1cc2c(Sc3cccc(NC(=O)Nc4cc(C(C)(C)C(F)(F)F)on4)c3)ncnc2cc1OC [Ex 262, 1-(3-(6-ethoxy-7-methoxyquinazolin-4-ylthio)phenyl)-3-(5-(1,1,1-trifluoro-2-methylpropan-2-yl)isoxazol-3-yl)urea] | – | C (0.20 < C ≦ 0.40) | –
CCOc1cc2c(Oc3cccc(NC(=O)Nc4cc(C(C)(C)C)nn4-c4ccccc4)c3)ncnc2cc1OC [Ex 390, 1-(3-tert-butyl-1-phenyl-1H-pyrazol-5-yl)-3-(3-(6-ethoxy-7-methoxyquinazolin-4-yloxy)phenyl)urea] | – | D (D > 0.40) | –
COc1cc2ncnc(Oc3cc(NC(=O)Nc4cc(C(C)(CF)CF)on4)ccc3F)c2cc1OC [Ex 294, 1-(5-(1,3-difluoro-2-methylpropan-2-yl)isoxazol-3-yl)-3-(3-(6,7-dimethoxyquinazolin-4-yloxy)-4-fluorophenyl)urea] | – | D (D > 0.40) | –
COc1cc2ncnc(Oc3cccc(NC(=O)Nc4cc(C(F)(F)F)nn4-c4ccccc4)c3C)c2cc1OC [Ex 291, 1-(3-(6,7-Dimethoxyquinazolin-4-yloxy)-2-methylphenyl)-3-(1-phenyl-3-(trifluoromethyl)-1H-pyrazol-5-yl)urea] | – | B (0.10 < B ≦ 0.20) | –
CCc1cc(NC(=O)Nc2cccc(Sc3ncnc4cc(OC)c(OC)cc34)c2)n(-c2ccccc2)n1 [Ex 399, 1-(3-(6,7-dimethoxyquinazolin-4-ylthio)phenyl)-3-(3-ethyl-1-phenyl-1H-pyrazol-5-yl)urea] | – | C (0.20 < C ≦ 0.40) | –
COCCOc1cc2ncnc(Oc3cccc(NC(=O)Nc4cc(-c5ccccc5)on4)c3)c2cc1OC [Ex 203, 1-(3-(6-methoxy-7-(2-methoxyethoxy)quinazolin-4-yloxy)phenyl)-3-(5-phenylisoxazol-3-yl)urea] | – | – | S35 [3]: B (0.10 < B ≦ 0.20)
COc1cc2ncnc(Oc3ccc(F)c(NC(=O)Nc4cc(C(C)(C)C)nn4-c4ccccc4)c3)c2cc1OC [Ex 368, 1-(3-tert-butyl-1-phenyl-1H-pyrazol-5-yl)-3-(5-(6,7-dimethoxyquinazolin-4-yloxy)-2-fluorophenyl)urea] | – | D (D > 0.40) | –
COc1cc2ncnc(Oc3cccc(NC(=O)Nc4cc(C(C)(C)C)nn4-c4ccc(C(C)(C)C)cc4)c3)c2cc1OC [Ex 369, 1-(3-tert-butyl-1-(4-tert-butylphenyl)-1H-pyrazol-5-yl)-3-(3-(6,7-dimethoxyquinazolin-4-yloxy)phenyl)urea] | – | C (0.20 < C ≦ 0.40) | –
COc1cc2ncnc(Sc3cccc(NC(=O)Nc4cc(C(C)(C)C)nn4-c4ccc(C)cc4C)c3)c2cc1OC [Ex 284, 1-(3-tert-butyl-1-(2,4-dimethylphenyl)-1H-pyrazol-5-yl)-3-(3-(6,7-dimethoxyquinazolin-4-ylthio)phenyl)urea] | – | C (0.20 < C ≦ 0.40) | –
COCCOc1cc2ncnc(Oc3cccc(NC(=O)Nc4cc(C(C)(C)F)no4)c3)c2cc1OC [Ex 218, 1-(3-(2-fluoropropan-2-yl)isoxazol-5-yl)-3-(3-(6-methoxy-7-(2-methoxyethoxy)quinazolin-4-yloxy)phenyl)urea] | C* (0.20 < C ≦ 0.40) | – | –
COCCOc1cc2ncnc(Sc3cccc(NC(=O)Nc4cc(C(C)C)on4)c3)c2cc1OC [Ex 232, 1-(5-isopropylisoxazol-3-yl)-3-(3-(6-methoxy-7-(2-methoxyethoxy)quinazolin-4-ylthio)phenyl)urea] | C* (0.20 < C ≦ 0.40) | – | –

SMILES | S35 [1] | S35 [2] | further results
COc1cc2ncnc(Oc3cc(NC(=O)Nc4cc(C(C)(C)C)on4)c(F)cc3F)c2cc1OC [Ex 270, 1-(5-tert-butylisoxazol-3-yl)-3-(5-(6,7-dimethoxyquinazolin-4-yloxy)-2,4-difluorophenyl)urea] | – | D (D > 0.40) | –
COCCOc1cc2ncnc(Oc3cccc(NC(=O)Nc4cc(C(C)(F)F)no4)c3)c2cc1OC [Ex 211, 1-(3-(1,1-difluoroethyl)isoxazol-5-yl)-3-(3-(6-methoxy-7-(2-methoxyethoxy)quinazolin-4-yloxy)phenyl)urea] | C* (0.20 < C ≦ 0.40) | – | –
COCCOc1cc2ncnc(Oc3cccc(NC(=O)Nc4cc(C(F)(F)F)no4)c3)c2cc1OC [Ex 229, 1-(3-(6-methoxy-7-(2-methoxyethoxy)quinazolin-4-yloxy)phenyl)-3-(3-(trifluoromethyl)isoxazol-5-yl)urea] | C* (0.20 < C ≦ 0.40) | – | –
COc1cc2ncnc(Oc3ccc(F)c(NC(=O)Nc4cc(C(C)(C)C)on4)c3)c2cc1OC [Ex 367, 1-(5-tert-butylisoxazol-3-yl)-3-(5-(6,7-dimethoxyquinazolin-4-yloxy)-2-fluorophenyl)urea] | – | D (D > 0.40) | –
COc1cc2ncnc(Sc3cccc(NC(=O)Nc4cc(C(C)(C)C)nn4-c4ccc(Cl)cc4)c3)c2cc1OC [Ex 366, 1-(3-tert-butyl-1-(4-chlorophenyl)-1H-pyrazol-5-yl)-3-(3-(6,7-dimethoxyquinazolin-4-ylthio)phenyl)urea] | – | D (D > 0.40) | –
COc1cc2ncnc(Sc3cccc(NC(=O)Nc4cc(C(C)(C)C)nn4-c4cccc(C)c4)c3)c2cc1OC [Ex 286, 1-(3-tert-butyl-1-m-tolyl-1H-pyrazol-5-yl)-3-(3-(6,7-dimethoxyquinazolin-4-ylthio)phenyl)urea] | – | D (D > 0.40) | –
COc1cc2c(Oc3cccc(NC(=O)Nc4ccc(OC)c(C(F)(F)F)c4)c3)ncnc2cc1OCCN1CCOCC1 [Ex 250, 1-(4-methoxy-3-(trifluoromethyl)phenyl)-3-(3-(6-methoxy-7-(2-morpholinoethoxy)quinazolin-4-yloxy)phenyl)urea] | C* (0.20 < C ≦ 0.40) | – | –
COc1cc2ncnc(Oc3cccc(NC(=O)Nc4cc(C(C)(C)CN5CCOCC5)on4)c3)c2cc1OC [Ex 302, 1-(3-(6,7-dimethoxyquinazolin-4-yloxy)phenyl)-3-(5-(2-methyl-1-morpholinopropan-2-yl)isoxazol-3-yl)urea] | – | B (0.10 < B ≦ 0.20) | –
COc1cc2c(Oc3cccc(NC(=O)Nc4cc(C(C)(C)F)no4)c3)ncnc2cc1OCCN1CCOCC1 [Ex 251, 1-(3-(2-fluoropropan-2-yl)isoxazol-5-yl)-3-(3-(6-methoxy-7-(2-morpholinoethoxy)quinazolin-4-yloxy)phenyl)urea] | C* (0.20 < C ≦ 0.40) | – | –
COc1cc2ncnc(Sc3cccc(NC(=O)Nc4cc(C(C)(C)C)nn4-c4cccc(Cl)c4)c3)c2cc1OC [Ex 364, 1-(3-tert-butyl-1-(3-chlorophenyl)-1H-pyrazol-5-yl)-3-(3-(6,7-dimethoxyquinazolin-4-ylthio)phenyl)urea] | – | D (D > 0.40) | –
COCCOc1cc2ncnc(Sc3cccc(NC(=O)Nc4cc(C(F)(F)F)nn4C)c3)c2cc1OC [Ex 239, 1-{3-[6-methoxy-7-(2-methoxyethoxy)quinazolin-4-ylthio]phenyl}-3-[1-methyl-3-(trifluoromethyl)-1H-pyrazol-5-yl]urea] | D* (D > 0.40) | – | –
COCCOc1cc2ncnc(Oc3cccc(NC(=O)Nc4cc(C(C)C)on4)c3)c2cc1OC [Ex 206, 1-(5-isopropylisoxazol-3-yl)-3-(3-(6-methoxy-7-(2-methoxyethoxy)quinazolin-4-yloxy)phenyl)urea] | C* (0.20 < C ≦ 0.40) | – | –
COc1cc2ncnc(Sc3cccc(NC(=O)Nc4cc(C(C)(C)C)nn4-c4ccccc4F)c3)c2cc1OC [Ex 371, 1-(3-tert-butyl-1-(2-fluorophenyl)-1H-pyrazol-5-yl)-3-(3-(6,7-dimethoxyquinazolin-4-ylthio)phenyl)urea] | – | D (D > 0.40) | –
COc1cc2ncnc(Oc3ccc(Cl)c(NC(=O)Nc4cc(C(F)(F)F)nn4-c4ccccc4)c3)c2cc1OC [Ex 300, 1-(2-chloro-5-(6,7-dimethoxyquinazolin-4-yloxy)phenyl)-3-(1-phenyl-3-(trifluoromethyl)-1H-pyrazol-5-yl)urea] | – | C (0.20 < C ≦ 0.40) | –
COc1cc2ncnc(Oc3cccc(NC(=O)Nc4cc(C(C)(C)C)nn4-c4ccc(C(F)(F)F)cc4)c3)c2cc1OC [Ex 373, 1-(3-tert-butyl-1-(4-(trifluoromethyl)phenyl)-1H-pyrazol-5-yl)-3-(3-(6,7-dimethoxyquinazolin-4-yloxy)phenyl)urea] | – | C (0.20 < C ≦ 0.40) | –
COCCOc1cc2ncnc(Sc3cccc(NC(=O)Nc4cc(C(C)(C)F)no4)c3)c2cc1OC [Ex 234, 1-(3-(2-fluoropropan-2-yl)isoxazol-5-yl)-3-(3-(6-methoxy-7-(2-methoxyethoxy)quinazolin-4-ylthio)phenyl)urea] | C* (0.20 < C ≦ 0.40) | – | –
